# Laboratory results reported in ChEMBL document CHEMBL4270506, “Recent advances in drug discovery of phototherapeutic non-porphyrinic anticancer agents” (Eur J Med Chem, 2017).
# How the values were obtained:
# [1] = Dark toxicity in mouse B16F10 cells assessed as reduction in cell viability after 24 hrs by MTT assay; assay type: cell-based, B16-F10
# B16-F10 = test: Phototoxicity in mouse B16F10 cells assessed as reduction in cell viability under irradiation with >500 nm light after 24 hrs by MTT assay; assay type: functional, cell-based; details: B16-F10, light or radiation study
# [2] = Dark toxicity in human C8161 cells assessed as reduction in cell viability after 24 hrs by MTT assay; assay type: cell-based
# [3] = Phototoxicity in human C8161 cells assessed as reduction in cell viability under irradiation with >500 nm light after 24 hrs by MTT assay; assay type: functional, cell-based; details: C8161, light or radiation study
# [4] = Dark toxicity in human PBMC assessed as reduction in cell viability after 24 hrs by MTT assay; assay type: cell-based
# PBMC [5] = test: Phototoxicity in human PBMC assessed as reduction in cell viability under irradiation with >500 nm light after 24 hrs by MTT assay; assay type: cell-based; details: light or radiation study
# PBMC [6] = test: Phototoxicity in human PBMC assessed as reduction in cell viability at 20 uM under irradiation with >500 nm light after 24 hrs by MTT assay; assay type: cell-based
# [7] = Dark toxicity in human MCF7/DX cells assessed as inhibition of cell growth at 1 uM after 24 hrs by MTT assay; assay type: cell-based; details: read-out: GI
# [8] = Phototoxicity in human MCF7/DX cells assessed as inhibition of cell growth at 1 uM pre-incubated for 4 hrs before photoirradiation with 530 to 550 nm light and measured after 24 hrs post irradiation by MTT assay; assay type: functional; details: light or radiation study, read-out: GI
# [9] = Phototoxicity in human MCF7/DX cells assessed as inhibition of cell growth at 1 uM pre-incubated for 24 hrs before photoirradiation with 530 to 550 nm light and measured after 24 hrs post irradiation by MTT assay; assay type: functional; details: light or radiation study, read-out: GI
# [10] = Phototoxicity in human MCF7/DX cells assessed as inhibition of cell growth at 1 uM pre-incubated for 4 hrs before photoirradiation with 630 nm light and measured after 24 hrs post irradiation by MTT assay; assay type: functional; details: light or radiation study, read-out: GI
# [11] = Phototoxicity in human MCF7/DX cells assessed as inhibition of cell growth at 1 uM pre-incubated for 24 hrs before photoirradiation with 630 nm light and measured after 24 hrs post irradiation by MTT assay; assay type: functional; details: light or radiation study, read-out: GI
# [12] = Dark toxicity in wild type human MCF7 cells assessed as inhibition of cell growth at 1 uM after 24 hrs by MTT assay; assay type: cell-based; details: read-out: GI
# MCF7 [13] = test: Phototoxicity in wild type human MCF7 cells assessed as inhibition of cell growth at 1 uM pre-incubated for 4 hrs before photoirradiation with 530 to 550 nm light and measured after 24 hrs post irradiation by MTT assay; assay type: functional; details: MCF7, light or radiation study, read-out: GI
# MCF7 [14] = test: Phototoxicity in wild type human MCF7 cells assessed as inhibition of cell growth at 1 uM pre-incubated for 24 hrs before photoirradiation with 530 to 550 nm light and measured after 24 hrs post irradiation by MTT assay; assay type: functional; details: MCF7, light or radiation study, read-out: GI
# MCF7 [15] = test: Phototoxicity in wild type human MCF7 cells assessed as inhibition of cell growth at 1 uM pre-incubated for 4 hrs before photoirradiation with 630 nm light and measured after 24 hrs post irradiation by MTT assay; assay type: functional; details: MCF7, light or radiation study, read-out: GI
# MCF7 [16] = test: Phototoxicity in wild type human MCF7 cells assessed as inhibition of cell growth at 1 uM pre-incubated for 24 hrs before photoirradiation with 630 nm light and measured after 24 hrs post irradiation by MTT assay; assay type: functional; details: MCF7, light or radiation study, read-out: GI
# HeLa [17] = test: Phototoxicity in human HeLa cells assessed as reduction in cell viability in presence of irradiation with 625 nm laser light by MTT assay; assay type: functional, cell-based; details: light or radiation study
# [18] = Phototoxicity in human MCF7/DX cells assessed as inhibition of cell growth at 1 uM pre-incubated for 4 hrs before photoirradiation with 430 nm light and measured after 24 hrs post irradiation by MTT assay; assay type: functional; details: light or radiation study, read-out: GI
# [19] = Phototoxicity in human MCF7/DX cells assessed as inhibition of cell growth at 1 uM pre-incubated for 24 hrs before photoirradiation with 430 nm light and measured after 24 hrs post irradiation by MTT assay; assay type: functional; details: light or radiation study, read-out: GI
# MCF7 [20] = test: Phototoxicity in wild type human MCF7 cells assessed as inhibition of cell growth at 1 uM pre-incubated for 4 hrs before photoirradiation with 430 nm light and measured after 24 hrs post irradiation by MTT assay; assay type: functional; details: MCF7, light or radiation study, read-out: GI
# MCF7 [21] = test: Phototoxicity in wild type human MCF7 cells assessed as inhibition of cell growth at 1 uM pre-incubated for 24 hrs before photoirradiation with 430 nm light and measured after 24 hrs post irradiation by MTT assay; assay type: functional; details: MCF7, light or radiation study, read-out: GI
# [22] = Dark toxicity in human MDA-MB-231 cells assessed as reduction in cell viability by MTT assay; assay type: cell-based
# MDA-MB-231 = test: Phototoxicity in human MDA-MB-231 cells assessed as reduction in cell viability pre-incubated for 1 hr before photo-irradiation with 700 mW-630 nm laser light for 15 mins by MTT assay; assay type: functional, cell-based; details: MDA-MB-231, light or radiation study
# [23] = Dark toxicity in human MCF7 cells assessed as reduction in cell viability by MTT assay; assay type: cell-based
# MCF7 [24] = test: Phototoxicity in human MCF7 cells assessed as reduction in cell viability pre-incubated for 1 hr before photo-irradiation with 700 mW-630 nm laser light for 15 mins by MTT assay; assay type: functional, cell-based; details: MCF7, light or radiation study
# [25] = Dark toxicity in human MCF10A cells assessed as reduction in cell viability by MTT assay; assay type: cell-based, MCF-10A
# MCF-10A = test: Phototoxicity in human MCF10A cells assessed as reduction in cell viability pre-incubated for 1 hr before photo-irradiation with 700 mW-630 nm laser light for 15 mins by MTT assay; assay type: cell-based; details: light or radiation study
# [26] = Dark toxicity in human SCC131 cells assessed as reduction in cell viability by MTT assay; assay type: cell-based
# [27] = Phototoxicity in human SCC131 cells assessed as reduction in cell viability pre-incubated for 1 hr before photo-irradiation with 700 mW-630 nm laser light for 15 mins by MTT assay; assay type: functional, cell-based; details: SCC131, light or radiation study
# [28] = Dark toxicity in human SCC172 cells assessed as reduction in cell viability by MTT assay; assay type: cell-based
# [29] = Phototoxicity in human SCC172 cells assessed as reduction in cell viability pre-incubated for 1 hr before photo-irradiation with 700 mW-630 nm laser light for 15 mins by MTT assay; assay type: functional, cell-based; details: SCC172, light or radiation study
# [30] = Dark toxicity in human HCT116 cells assessed as reduction in cell viability by MTT assay; assay type: cell-based, HCT-116
# HCT-116 = test: Phototoxicity in human HCT116 cells assessed as reduction in cell viability pre-incubated for 1 hr before photo-irradiation with 700 mW-630 nm laser light for 15 mins by MTT assay; assay type: functional, cell-based; details: HCT-116, light or radiation study
# [31] = Dark toxicity in human HeLa cells assessed as reduction in cell viability by MTT assay; assay type: cell-based
# HeLa [32] = test: Phototoxicity in human HeLa cells assessed as reduction in cell viability pre-incubated for 1 hr before photo-irradiation with 700 mW-630 nm laser light for 15 mins by MTT assay; assay type: functional, cell-based; details: light or radiation study
# [33] = Dark toxicity in human SiHa cells assessed as reduction in cell viability by MTT assay; assay type: cell-based
# SiHa = test: Phototoxicity in human SiHa cells assessed as reduction in cell viability pre-incubated for 1 hr before photo-irradiation with 700 mW-630 nm laser light for 15 mins by MTT assay; assay type: functional, cell-based; details: light or radiation study
# [34] = Dark toxicity in human MIAPaCa2 cells assessed as reduction in cell viability by MTT assay; assay type: cell-based, MIA PaCa-2
# MIA PaCa-2 = test: Phototoxicity in human MIAPaCa2 cells assessed as reduction in cell viability pre-incubated for 1 hr before photo-irradiation with 700 mW-630 nm laser light for 15 mins by MTT assay; assay type: functional, cell-based; details: MIA PaCa-2, light or radiation study
# [35] = Dark toxicity in mouse L5178Y cells assessed as cell viability at 0.5 uM; assay type: cell-based; details: read-out: Activity
# L5178Y = test: Phototoxicity in mouse L5178Y cells assessed as cell viability at 0.5 uM under irradiation by visible light at 337.5 kJ/m2 between 400 to 800 nm; assay type: functional; details: light or radiation study, read-out: Activity
# [36] = Dark toxicity in Chinese hamster AS52 cells assessed as cloning efficiency at 1 uM; assay type: cell-based, Cricetulus griseus
# [37] = Phototoxicity in Chinese hamster AS52 cells assessed as cloning efficiency at 1 uM under irradiation by visible light at 337.5 kJ/m2 between 400 to 800 nm; assay type: functional, Cricetulus griseus
# HeLa [38] = test: Phototoxicity in human HeLa cells assessed as reduction in cell viability in presence of irradiation with 700 to 1000 nm near-infrared light; assay type: functional, cell-based; details: light or radiation study
# HeLa [39] = test: Phototoxicity in human HeLa cells assessed as reduction in cell viability in presence of irradiation with white light; assay type: functional, cell-based; details: light or radiation study
# [40] = Phototoxicity in human keloid fibroblasts assessed as cell viability at 2 to 8 umol/L pre-incubated for 4 hrs before 0.5 J.cm2 UVA irradiation by MTT assay; assay type: functional
compound,measurement,setting,value
CCN1/C(=C\C=C\c2sc3cc4c(cc3[n+]2CC)sc(/C=C/C=C2\N(CC)c3ccccc3C2(C)C)[n+]4CC)C(C)(C)c2ccccc21,IC50 at 24 h,[1],20 µM
same,IC50,B16-F10,5 µM
same,IC50 at 24 h,[2],20 µM
same,IC50,[3],5 µM
same,IC50 at 24 h,[4],20 µM
same,IC50,PBMC [5],20 µM
same,Activity,PBMC [6],<= 70%
CCN1/C(=C/C(C)=C/c2sc3ccccc3[n+]2CC)Sc2ccccc21,"inhibition at 24 h, 1 µM",[7],10%
same,inhibition of growth at 1 µM,[8],20%
same,inhibition of growth at 1 µM,[9],20%
same,inhibition of growth at 1 µM,[10],60%
same,inhibition of growth at 1 µM,[11],> 80%
same,"inhibition at 24 h, 1 µM",[12],20%
same,inhibition of growth at 1 µM,MCF7 [13],60%
same,inhibition of growth at 1 µM,MCF7 [14],60%
same,inhibition of growth at 1 µM,MCF7 [15],50%
same,inhibition of growth at 1 µM,MCF7 [16],80%
COC(=O)c1ccc(C2=C3C(Br)=c4sc(-c5ccc(Br)s5)cc4=[N+]3[B-](F)(F)n3c2cc2sc(-c4ccc(Br)s4)cc23)cc1,IC50,HeLa [17],7.12 µM
CCN1C(=O)/C(=C\C=C2/SCCN2C)OC1=S,"inhibition at 24 h, 1 µM",[7],10%
same,inhibition of growth at 1 µM,[18],40%
same,inhibition of growth at 1 µM,[19],10%
same,"inhibition at 24 h, 1 µM",[12],20%
same,inhibition of growth at 1 µM,MCF7 [20],> 40%
same,inhibition of growth at 1 µM,MCF7 [21],20%
O=C1C(I)=C(O)C(=C2C(=O)C(c3c(O)c(I)c(O)c(I)c3O)=C2O)C(O)=C1I,IC50,[22],> 50 µM
same,IC50,MDA-MB-231,19.8 µM
same,IC50,[23],> 50 µM
same,IC50,MCF7 [24],25.3 µM
same,IC50,[25],> 50 µM
same,IC50,MCF-10A,44.7 µM
same,IC50,[26],> 50 µM
same,IC50,[27],30.7 µM
same,IC50,[28],> 50 µM
same,IC50,[29],34.7 µM
same,IC50,[30],> 50 µM
same,IC50,HCT-116,26 µM
same,IC50,[31],> 50 µM
same,IC50,HeLa [32],36 µM
same,IC50,[33],> 50 µM
same,IC50,SiHa,33.7 µM
same,IC50,[34],> 50 µM
same,IC50,MIA PaCa-2,28.3 µM
same,viability at 0.5 µM,[35],90%
same,viability at 0.5 µM,L5178Y,< 10%
same,Activity,[36],90%
same,Activity,[37],10%
Nc1ccc(-c2ccc3nc4ccc(-c5ccc(N)cc5)cc4[s+]c3c2)cc1,EC50,HeLa [38],8 µM
same,EC50,HeLa [39],6 µM
Nc1ccc(-c2nc3ccccc3s2)cc1,Activity,[40],50%
